Converted amounts (≈) assume the structure as drawn.
Assays:
[1] = system: panel of different staphylococcal strains; conditions: compound alone; also under supplemented conditions
Description: The activity of the salt was also determined against a panel of different staphylococcal strains, including some with known antibiotic resistance. MIC, MBC and DDA assays were carried out as described above for each of the strains, including determining the effect of the presence of salt and serum.
For DDA experiments 200 μg of the test compound was added per disc. DMSO was used as the diluting solvent. All experiments were performed in triplicate.

[2] = system: Staphylococcus haemolyticus ATCC 29970; conditions: triplicate
Description: (§6) The staphylococci were cultured and maintained on Mueller-Hinton Medium (agar and broth) at pH 7.2; cultures were incubated aerobically at 37° C. for 19-20 hours.
This is a standard international method for quantitatively assessing the antimicrobial activity of a compound in a liquid medium. The method used a sterile 96-well microtitre plate, capable of holding about 200 μl of liquid per well. […] The culture media were as described above.
The wells were inoculated with a liquid suspension of freshly grown micro-organism and incubated under the conditions described above. After incubation, the microtitre plate was examined visually (with the aid of a light box) for cloudiness in each well, which would indicate microbial growth. The MIC value was recorded as the lowest concentration of test compound required to inhibit microbial growth, ie, the lowest concentration for which the liquid in the well remained clear.

[3] = system: panel of different propionibacterium strains; experiment: MIC by agar dilution and (S)DDA, whole panel; type: cell-based, Propionibacterium spp; conditions: compound alone; also under supplemented conditions
Description: For (S)DDA experiments 200 μg of each test compound was added per disc. […] MIC experiments were performed in duplicate, DDA experiments as single replicates only. SDDA experiments were conducted in triplicate.
The activity of the salt (MIC by agar dilution and DDA) was also determined against a panel of different propionibacterium strains. Supplemented DDA experiments were also carried out. […] DMSO was used as the diluting solvent. MIC experiments were performed in duplicate and DDA experiments as single replicates only.

P. granulosum PRP-055 = experiment: Disc diffusion assay (DDA), also supplemented; type: cell-based; conditions: Table 12 series, 200 μg per disc
Description: (§7) The propionibacteria were cultured and maintained on Wilkins-Chalgren Anaerobe Medium (agar and broth) at pH 6.0; all cultures were incubated anaerobically at 37° C. for 72 hours.
(§8) A sterile paper disc was impregnated with a sample of the test compound in a suitable solvent and 30 minutes allowed for the solvents to evaporate (where possible). The disc was then placed on an agar plate onto which the test micro-organism had been inoculated. The plate was then incubated under the conditions described above, following which it was examined visually for signs of bacterial growth. […] The diameter of this zone of “inhibition” was measured using a ProtoCOL™ automated zone sizer (Synbiosis, Cambridge, UK).
(§9) For assays using Propionibacterium spp. strains the supplements used in the examples below were lipid (either Tween™ 80 or triolein, both at 1% v/v) and sodium chloride (100 mM).

P. granulosum PRP-005 = experiment: Disc diffusion assay (DDA), also supplemented; type: cell-based; conditions: Table 12 series, 200 μg per disc
Description: as §7, §8, §9

P. acnes PRP-007 = experiment: Disc diffusion assay (DDA), also supplemented; type: cell-based, Propionibacterium acnes; conditions: Table 12 series, 200 μg per disc
Description: as §7, §8, §9

P. acnes PRP-059 = experiment: Disc diffusion assay (DDA), also supplemented; type: cell-based, Propionibacterium acnes; conditions: Table 12 series, 200 μg per disc
Description: as §7, §8, §9

P. acnes PRP-017 = experiment: Disc diffusion assay (DDA), also supplemented; type: cell-based, Propionibacterium acnes; conditions: Table 12 series, 200 μg per disc
P. granulosum PRP-043 = experiment: Disc diffusion assay (DDA), also supplemented; type: cell-based; conditions: Table 12 series, 200 μg per disc
Description: as §7, §8, §9

P. acnes PRP-039 = experiment: Disc diffusion assay (DDA), also supplemented; type: cell-based, Propionibacterium acnes; conditions: Table 12 series, 200 μg per disc
P. granulosum NCTC 11865 = experiment: Disc diffusion assay (DDA), also supplemented; type: cell-based; conditions: Table 12 series, 200 μg per disc
Description: as §7, §8, §9

S. aureus ATCC 29213 [4] = experiment: Minimum inhibitory concentration (MIC) assay; type: cell-based, Staphylococcus aureus; conditions: S. aureus ATCC 29213
Excerpt: (§1) (a) Minimum Inhibitory Concentration (MIC) Assay
(§2) The culture media were as described above.
(§3) The assays included both negative (culture medium with no micro-organisms) and positive (culture medium plus diluting solvent plus micro-organism) controls.

P. acnes NCTC 737 [5] = experiment: Disc diffusion assay (DDA), also supplemented; conditions: single compound, 200 μg per disc;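 further: paper disc carrying compound placed on inoculated Wilkins-Chalgren Anaerobe agar pH 6.0, with lipid or NaCl supplement where listed, anaerobic 37 °C for 72 h, inhibition zone diameter read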
Description: as §7
(d) Disc Diffusion Assay (DDA)
as §8
(f) Supplemented Disc Diffusion Assays
as §9

P. acnes PRP-102 = experiment: Disc diffusion assay (DDA), also supplemented; type: cell-based, Propionibacterium acnes; conditions: Table 12 series, 200 μg per disc
Description: as §7, §8, §9

P. granulosum PRP-021 = experiment: Disc diffusion assay (DDA), also supplemented; type: cell-based; conditions: Table 12 series, 200 μg per disc
Description: as §7, §8, §9

P. acnes PRP-004 = experiment: Disc diffusion assay (DDA), also supplemented; type: cell-based, Propionibacterium acnes; conditions: Table 12 series, 200 μg per disc
Description: as §7, §8, §9

P. acnes PRP-026 = experiment: Disc diffusion assay (DDA), also supplemented; type: cell-based, Propionibacterium acnes; conditions: Table 12 series, 200 μg per disc
Description: as §7, §8, §9

P. acnes PRP-046 = experiment: Disc diffusion assay (DDA), also supplemented; type: cell-based, Propionibacterium acnes; conditions: Table 12 series, 200 μg per disc
P. acnes PRP-023 = experiment: Disc diffusion assay (DDA), also supplemented; type: cell-based, Propionibacterium acnes; conditions: Table 12 series, 200 μg per disc
Description: as §7, §8, §9

P. granulosum PRP-006 = experiment: Disc diffusion assay (DDA), also supplemented; type: cell-based; conditions: Table 12 series, 200 μg per disc
Description: as §7, §8, §9

P. acnes PRP-053 = experiment: Disc diffusion assay (DDA), also supplemented; type: cell-based, Propionibacterium acnes; conditions: Table 12 series, 200 μg per disc
Description: as §7, §8, §9

S. aureus ATCC 29213 [6] = experiment: Minimum bactericidal concentration (MBC) assay; type: cell-based, Staphylococcus aureus; conditions: Staphylococcus aureus, ATCC29213; S. aureus ATCC 29213; duplicate; read-out: MBC
Description: (§4) (b) Minimum Bactericidal Concentration (MBC) Assay
(§5) Following incubation they were examined visually for bacterial growth.

S. aureus ATCC 29213 [7] = experiment: Disc diffusion assay (DDA), also supplemented; conditions: single compound, 200 μg per disc
Description: as §6
(d) Disc Diffusion Assay (DDA)
as §8
(f) Supplemented Disc Diffusion Assays
For assays using S. aureus ATCC 29213 the supplements used were sodium chloride (100 mM), lipid (Tween™ 80 at 1% v/v) and horse serum (5% v/v).

P. acnes NCTC 737 [8] = experiment: Minimum inhibitory concentration (MIC) assay; type: cell-based, Propionibacterium acnes; conditions: P. acnes NCTC 737
Excerpt: as §1, §2, §3

P. acnes PRP-008 = experiment: Disc diffusion assay (DDA), also supplemented; type: cell-based, Propionibacterium acnes; conditions: Table 12 series, 200 μg per disc
Description: as §7, §8, §9

P. acnes PRP-002 = experiment: Disc diffusion assay (DDA), also supplemented; type: cell-based, Propionibacterium acnes; conditions: Table 12 series, 200 μg per disc
Description: as §7, §8, §9

P. acnes PRP-101 = experiment: Disc diffusion assay (DDA), also supplemented; type: cell-based, Propionibacterium acnes; conditions: Table 12 series, 200 μg per disc
Description: as §7, §8, §9

P. acnes PRP-068 = experiment: Disc diffusion assay (DDA), also supplemented; type: cell-based, Propionibacterium acnes; conditions: Table 12 series, 200 μg per disc
Description: as §7, §8, §9

P. granulosum PRP-019 = experiment: Disc diffusion assay (DDA), also supplemented; type: cell-based; conditions: Table 12 series, 200 μg per disc
Description: as §7, §8, §9

P. acnes NCTC 737 [9] = experiment: Minimum bactericidal concentration (MBC) assay; type: cell-based, Propionibacterium acnes; conditions: Cutibacterium acnes, NCTC737; P. acnes NCTC 737; duplicate; read-out: MBC
Description: as §4, §5

P. acnes PRP-003 = experiment: Disc diffusion assay (DDA), also supplemented; type: cell-based, Propionibacterium acnes; conditions: Table 12 series, 200 μg per disc
Description: as §7, §8, §9

P. acnes PRP-010 = experiment: Disc diffusion assay (DDA), also supplemented; type: cell-based, Propionibacterium acnes; conditions: Table 12 series, 200 μg per disc
Description: as §7, §8, §9

P. granulosum PRP-044 = experiment: Disc diffusion assay (DDA), also supplemented; type: cell-based; conditions: Table 12 series, 200 μg per disc
Description: as §7, §8, §9

[10] = zone of inhibition diameter, unsupplemented

With `Oc1cccc2cccnc12.[Cu+2]` [8-hydroxyquinoline copper (II) salt] the “activity against staphylococcal strains (in words)” value [1] was “high activity”, the “Cu-8HQ MIC” value [2] was 7.8 µg/mL and the “activity against propionibacterium strains tested (in words)” value [3] was “high activity”.

`CC(C)(C)c1cc(O)ccc1O` [TBHQ, t-butylhydroquinone] showed a DDA (P. granulosum PRP-055) of 10.04 mm, a DDA (P. granulosum PRP-005) of 15.05 mm and a DDA (P. acnes PRP-007) of 8.78 mm. It also gave a DDA (P. acnes PRP-059) of 10.87 mm, a DDA (P. acnes PRP-017) of 9.93 mm and a DDA (P. granulosum PRP-043) of 10.77 mm. It also gave a DDA (P. acnes PRP-039) of 17.04 mm, a DDA (P. granulosum NCTC 11865) of 10.45 mm and an MIC/MBC ratio (S. aureus ATCC 29213 [4]) of 0.5. The “SL (S)DDA” value (P. acnes NCTC 737 [5]; salt and lipid (1% (v/v) Tween 80) supplements) was 0.0 mm, the “(S)DDA” value (P. acnes NCTC 737 [5]; [10]) was 12.20 (±1.13) mm and the DDA (P. acnes PRP-102) was 9.10 mm. The DDA (P. granulosum PRP-021) was 8.57 mm, the DDA (P. acnes PRP-004) was 13.80 mm and the DDA (P. acnes PRP-026) was 11.29 mm. It also gave a DDA (P. acnes PRP-046) of 14.22 mm, a DDA (P. acnes PRP-023) of 11.92 mm and a DDA (P. granulosum PRP-006) of 9.93 mm. The DDA (P. acnes PRP-053) was 9.93 mm, the MBC (S. aureus ATCC 29213 [6]) was 7.8 µg/mL (≈ 46.9 µM) and the “SS (S)DDA” value (S. aureus ATCC 29213 [7]; salt and serum supplements) was 43.68 (±1.02) mm. The “(S)DDA” value (S. aureus ATCC 29213 [7]; [10]) was 40.42 (±0.89) mm, the MIC (P. acnes NCTC 737 [8]; Cutibacterium acnes, NCTC737, liquid medium, duplicate, read-out: MIC) was 7.8 µg/mL (≈ 46.9 µM) and the MIC/MBC ratio (P. acnes NCTC 737 [8]) was 1. It also gave a DDA (P. acnes PRP-008) of 13.90 mm, a DDA (P. acnes PRP-002) of 10.56 mm and a DDA (P. acnes PRP-101) of 14.01 mm. The DDA (P. acnes PRP-068) was 12.55 mm, the DDA (P. granulosum PRP-019) was 0.00 mm and the MBC (P. acnes NCTC 737 [9]) was 7.8 µg/mL (≈ 46.9 µM). The DDA (P. acnes PRP-003) was 18.61 mm, the DDA (P. acnes PRP-010) was 8.68 mm and the DDA (P. granulosum PRP-044) was 0.00 mm.
